The conditions of data set [1]: cited from earlier work.
In data set [2] the test system is C57BL ksj (db/db). Particulars: hereditary obese diabetic mouse C57BL ksj (db/db); cited from earlier work.
The conditions of data set [3]: cited from earlier work. The source holds these as a separate data set.
Data set [4] relates to Ehrlich ascites carcinoma. Nature of the data set: Inhibition of Ehrlich solid tumor. Particulars: 7 days, 21st day. The format is in vivo, mouse. The method, then:
Eighteen five-week-old ICR male mice were subcutaneously inoculated with 10^6 cells of Ehrlich ascites carcinoma […] and after 24 hours, and the mice were classified into three groups of six mice, and 4-O-methylascochlorin diethylacetal (MAC-DE) was suspended in 0.2% Tween-80 and 1 mg/kg and 4 mg/kg were orally administered to the first group and the second group twice a day at 9:00 and 20:00, respectively, and a MAC-DE-free Tween-80 aqueous solution was given to the third group as a control group. The administration was continued for successive 7 days and after completion of the administration, the mice were fed for two weeks. On the 21st day, a nodular tumor was removed from the mice and the body weight was determined and the effect of MAC-DE on the inhibition of tumor growth was examined.

In data set [5] the test system is ddY male mice. Nature of the data set: Internal fat accumulation in ddY mice fed 13 weeks. It is filed as in vivo, mouse. The settings on record: livers and epididymal adipose tissues. The source says: Thirty 5-week-old ddY male mice were randomly classified into three groups of ten mice and fed for 13 weeks by allowing feed and water ad libidum. Meanwhile, the mouse standard diet CE-2 (a product of Japan CLEA Co., Ltd.) was given to the first group, and diet CE-2 containing 0.1% of 4-O-methylascochlorin diethylacetal (MAC-DE) was given to the second group of mice and diet CE-2 containing 0.05% of MAC-DE was given to the third group. […] After 13 weeks, the livers and the epididymal adipose tissues were removed from the mice and lipid was extracted by the Folch method and the triglyceride content was determined. As a result, the triglyceride content in the 0.05% MAC-DE group was reduced 27%, and the neutral fat content in the 0.1% MAC-DE group was reduced 35%. From this fact it would be understood that MAC-DE inhibits internal fat accumulation.

For data set [6], the system named is ICR male mice. Nature of the data set: Syngeneic Langerhans islet transplanted streptozotocin diabetic mouse. It is filed as in vivo. As to the method: Thirty 5-week-old ICR male mice were randomly classified into six groups and all mice were fed for one week by allowing mouse standard diet CE-2 (a product of Japan CLEA Co., Ltd.). Then, the mice in the first to third groups were intravenously injected with 50 mg/kg of streptozotocin and after one week, blood was collected from the orbit and the blood sugar and the serum insulin were determined to confirm the onset of insulin-dependent diabetes. Ten days after the streptozotocin injection, pancreatic Langerhans islets were removed from the age-matched normal mice in the fourth to sixth groups and 20 pancreatic Langerhans islets were subcutaneously transplanted in the back of each of the diabetic mice. Immediately after transplantation, diet CE-2 containing 0.1% of MAC-DE was given to the first group, diet CE-2 containing 0.05% of MAC-DE was given to the second group and CE-2 was given to the third group. The diabetic mice were further fed for 60 days, and blood was collected from the orbit and the blood sugar and the serum insulin were determined every 15 days.

Data set [7] has as its system ICR male mice. As to the kind of experiment: Mouse serum cholesterol lowering action. The settings on record: one week; for Total Cholesterol in Serum: ICR mice; for Rate of Change (total cholesterol in serum): vs control. It is filed as in vivo. The method, then: Thirty 5-week-old ICR male mice were bred by allowing mouse standard feed and water ad libitum. The mice were randomly classified into three groups, and one group was taken as a control group to which no drug was administered, and feed containing 0.1% of 4-O-methylasco-chlorin diethylacetal (MAC-DEA) and feed containing 0.05% of MAC-DEA were given to the other two groups, respectively. The body weight, the intake of feed and the amount of drinking water were measured every other day. One week after giving feed, blood was collected and the total cholesterol in serum and the neutral fat were determined.

Data set [8] relates to db/db mice. As to the kind of experiment: Action of MAC-DEA on db/db mouse. The format is in vivo. Particulars: for Blood Sugar / Serum Insulin / Serum Neutral Fat: db/db mice. The method, then:
Eighteen 7-week-old male db/db mice were bred for one week by allowing mouse standard feed and water ad libitum. The mice were randomly classified into three groups of six mice and each group was housed in a urine collection rat cage and the intake of feed, the amount of drinking water, the amount of urine and the amount of urine sugar excreted were determined everyday. Feed CE-2 was given to the first group as a control group, and feed CE-2 mixed with 0.05% of 4-O-methylascochlorin diethylacetal (MAC-DEA) and feed CE-2 mixed with 0.1% of MAC-DEA were given to the second group and the third group, respectively. The mice were allowed feed and drinking water ad libitum and on the 7th day, blood was collected and the blood sugar, the serum neutral fat and the serum insulin were determined.

Data set [9] has as its system ICR male mice. As to the kind of experiment: Fat accumulation in ICR mice fed 13 weeks. The format is in vivo, mouse. The settings on record: liver and epididymal adipose tissue. From the text: Thirty 5-week-old ICR male mice were randomly classified into three group of ten mice, and mouse standard diet CE-2 (a product of Japan CLEA Co., Ltd.) was given to the first group, and diet CE-2 containing 0.1% of 4-O-methylascochlorin diethylacetal (MAC-DE) was given to the second group and diet CE-2 containing 0.05% of MAC-DE was given to the third group and the mice were continued to be fed. […] After 13 weeks, the liver and the epididymal adipose tissue were removed from the mice and lipid was extracted by the Folch method and the triglyceride content was determined. As a result, the triglyceride content in the 0.05% MAC-DE group was reduced 27%, and the triglyceride content in the 0.1% MAC-DE group was reduced 35%. From this fact it would be understood that MAC-DE inhibits fat accumulation.

`CC(C=CC1(C)C(C)CCC(=O)C1C)=CCc1c(O)c(C=O)c(C)c(Cl)c1OCC(=O)O` (centres unmarked) [AS-6, 4-O-carboxymethylasco-chlorin]: the “soluble in water at a concentration” value in data set [1] (pH of 7.2 to 7.7 in the small intestine) is given as not below 6%. In addition, the carbohydrate metabolism result in data set [2] is reported as “improves in the carbohydrate metabolism”. The “toxicity to the liver” value in data set [3] (oral, blood concentration quickly rises) is listed as “the toxicity to the liver is easily exhibited”. Besides, the excretion result in [3] (orally administered to an animal) was “quickly excreted”.
For `COc1c(Cl)c(C)c(C=O)c(O)c1C/C=C(C)/C=C/[C@@]1(C)[C@H](C)CCC(=O)[C@@H]1C` [MAC, 4-O-Methylascochlorin], the solubility in water result in data set [1] was “less than 0.7 μg/ml”. The bioavailability result in [3] (oral, animals) is “very poor bioavailability”.
For the molecule `CCOC(OCC)c1c(C)c(Cl)c(OC)c(C/C=C(C)/C=C/[C@@]2(C)[C@H](C)CCC(=O)[C@@H]2C)c1O` [MAC-DEA, 4-O-methylascochlorin diethylacetal], the “Inhibition Ratio (tumor)” value worked out at 81% in data set [4] (1 mg/kg oral twice a day) and 96% in data set [4] (4 mg/kg oral twice a day). Moreover, the “Weight of Tumor” value in data set [4] (1 mg/kg oral twice a day) is listed as 0.25 g/mouse; in data set [4] (4 mg/kg oral twice a day) it was 0.06 g/mouse. Moreover, the “triglyceride content, reduction” value in data set [5] (0.05% in diet) was 27%; in data set [9] (0.05% in diet), 27%; in data set [9] (0.1% in diet), 35%. The “neutral fat content, reduction” value in [5] (0.1% in diet) worked out at 35%. Also, the “Blood Sugar” value in data set [6] (0.05% in diet CE-2, Day 0) stood at 566 mg/dL; in [6] (0.05% in diet CE-2, Day 15), 143 mg/dL; in data set [6] (0.05% in diet CE-2, Day 30), 148 mg/dL; in data set [6] (0.05% in diet CE-2, Day 45), 125 mg/dL; in [6] (0.05% in diet CE-2, Day 60), 118 mg/dL; in [6] (0.1% in diet CE-2, Day 0), 583 mg/dL. For the same molecule, the “Blood Sugar” value in [6] (0.1% in diet CE-2, Day 15) was 121 mg/dL; in data set [6] (0.1% in diet CE-2, Day 30) it was 118 mg/dL; in data set [6] (0.1% in diet CE-2, Day 45), 119 mg/dL; in data set [6] (0.1% in diet CE-2, Day 60) it was 131 mg/dL; in data set [8] (0.05% in feed CE-2, 7th day), 273 mg/dL; in [8] (0.1% in feed CE-2, 7th day) it was 239 mg/dL. Moreover, the Insulin was <2 ·U/ml in data set [6] (0.05% in diet CE-2, Day 0); 5 ·U/ml in [6] (0.05% in diet CE-2, Day 15); 5 ·U/ml in data set [6] (0.05% in diet CE-2, Day 30); 6 ·U/ml in [6] (0.05% in diet CE-2, Day 45); 6 ·U/ml in [6] (0.05% in diet CE-2, Day 60); <2 ·U/ml in data set [6] (0.1% in diet CE-2, Day 0). Besides, the Insulin in data set [6] (0.1% in diet CE-2, Day 15) was 5 ·U/ml; in data set [6] (0.1% in diet CE-2, Day 30), 6 ·U/ml; in data set [6] (0.1% in diet CE-2, Day 45) it was 6 ·U/ml; in data set [6] (0.1% in diet CE-2, Day 60) it was 6 ·U/ml. Moreover, the entries for the “Total Cholesterol in Serum” value in [7] (0.05% in feed) and in data set [7] (0.1% in feed) were 97 mg/dL and 90 mg/dL, respectively. Besides, the “Rate of Change (total cholesterol in serum)” value in [7] (0.05% in feed) is on record as −17.8%; in [7] (0.1% in feed) it was −23.7%. Further, the “Serum Insulin” value in data set [8] (0.05% in feed CE-2, 7th day) is recorded as 175 ·U/ml; in data set [8] (0.1% in feed CE-2, 7th day) it was 132 ·U/ml. The “Serum Neutral Fat” value is 259 mg/dL in data set [8] (0.05% in feed CE-2, 7th day) and 248 mg/dL in [8] (0.1% in feed CE-2, 7th day). Besides, the “Amount of Drinking Water” value is reported as 5.4 ml/mouse in data set [8] (0.05% in feed CE-2, db/db mice) and 3.2 ml/mouse in [8] (0.1% in feed CE-2, db/db mice). Also, the “Amount of Urine” value in [8] (0.05% in feed CE-2, db/db mice) stood at 2.5 ml/mouse; in data set [8] (0.1% in feed CE-2, db/db mice) it was 1.7 ml/mouse. In addition, the “Amount of Urine Sugar Excreted” value amounted to 47 mg/dL in data set [8] (0.05% in feed CE-2, db/db mice) and 10 mg/dL in [8] (0.1% in feed CE-2, db/db mice).

Source of the values: patent US7432306B2, “Method for preparing novel transcription factors and use” (NRL Pharma, Inc., priority 2005, dated 2008).
